“Also recorded” adds a separate entry of the source. Counter-ions that a name gives are not always drawn.
Experiments:
in vitro = conditions: human
[1] = system: WT-PV (wild type PV Mahoney); format: cell-based, poliovirus; conditions: 25 μM, 48 h
Vero cells = assay: Viability of Vero cells; format: cell-based; conditions: 0.1 μM
[2] = system: WT-PV (wild type PV Mahoney); assay: microbe, parasite or virus in culture; format: cell-based, poliovirus
[3] = format: in vivo; conditions: rhesus macaques, pilot PK studies
293T cells = assay: Cytotoxicity in 293T cells; format: cell-based; conditions: up to 100 μM
[4] = system: Sb-Gluc (modified PV expressing Gaussia Luciferase); format: cell-based, poliovirus; conditions: for Ec (%), inhibitory effect on poliovirus replication: 10 µM
Sb-GLuc = format: cell-based, poliovirus
HeLa cells = conditions: 10 µM
[5] = target: PV RNA-dependent RNA polymerase 3Dpol (Poliovirus type 1, UniProt P03300); format: biochemical
Chain of PV RNA-dependent RNA polymerase 3Dpol (P03300 1749-2209 limits assumed): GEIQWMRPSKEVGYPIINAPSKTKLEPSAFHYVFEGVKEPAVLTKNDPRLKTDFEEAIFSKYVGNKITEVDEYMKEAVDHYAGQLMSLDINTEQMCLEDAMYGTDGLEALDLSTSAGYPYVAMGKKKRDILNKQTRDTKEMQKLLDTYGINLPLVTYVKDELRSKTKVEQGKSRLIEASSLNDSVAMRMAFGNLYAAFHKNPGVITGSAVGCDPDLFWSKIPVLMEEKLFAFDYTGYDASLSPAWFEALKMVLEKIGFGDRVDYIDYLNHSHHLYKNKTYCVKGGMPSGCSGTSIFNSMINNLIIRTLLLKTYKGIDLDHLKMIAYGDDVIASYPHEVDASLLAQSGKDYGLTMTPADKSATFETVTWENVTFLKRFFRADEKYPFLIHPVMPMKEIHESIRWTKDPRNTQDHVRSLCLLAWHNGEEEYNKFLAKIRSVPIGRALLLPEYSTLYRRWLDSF

CCC(C)n1ncn(-c2ccc(N3CCN(c4ccc(OCC5COC(Cn6cncn6)(c6ccc(Cl)cc6Cl)O5)cc4)CC3)cc2)c1=O (stereo not drawn) [itraconazole]
viability at 10 µM (in vitro): 79.4% | Protection of HeLa cells from WT-PV (plaque assay) [1]: partial protective effect

Nc1ccn([C@@H]2O[C@H](CO)[C@@H](O)C2(F)F)c(=O)n1 [gemcitabine, 2′,2′-difluoro-2′-deoxycytidine]
Effect on Vero cells (Vero cells): kills Vero cells | Increase in viral RNA copies of WT-PV [2]: No noticeable increase | inhibition at 2 µM ([2]; Enterovirus C, HeLa, read-out: Inhibition on WT-PV replication): > 90% | Impact on immune cell counts and liver/kidney functions [3]: subtle and reversible impact | Cytotoxic effect in 293T cells (293T cells): without cytotoxic effect | IC50 ([4]; read-out: IC50 against Sb-GLuc on the basis of luminescent signal): 2.6 µM | Inhibition of Sb-GLuc replication in 293T cells (Sb-GLuc): inhibited Sb-GLuc replication | viability at 10 µM (in vitro): 87.9% | Protection of HeLa cells from WT-PV (plaque assay) [1]: completely protected

Nc1nc(O)c2[nH]nnc2n1 [azaguanine-8]
Vc (%), cell viability rate on HeLa cells (HeLa cells): 47.54%

NC[C@H]1O[C@H](O[C@H]2[C@H](O[C@@H]3O[C@H](CO)[C@@H](O)[C@H]3O)[C@@H](O)[C@H](N)C[C@@H]2N)[C@H](N)[C@@H](O)[C@@H]1O.O=S(=O)(O)O [ribostamycin sulfate salt]
Vc (%), cell viability rate on HeLa cells (HeLa cells): 88.8% | Ec (%), inhibitory effect on poliovirus replication [4]: 81.9%

Nc1ccn([C@@H]2O[C@H](COP(=O)(O)OP(=O)(O)OP(=O)(O)O)[C@@H](O)C2(F)F)c(=O)n1 [dFdC-TP, 2′,2′-difluoro-2′-deoxycytidine triphosphate]
Inhibition of dsRNA elongation [5]: apparent inhibition; also recorded: weak inhibition | Inhibition of dsRNA synthesis or elongation [5]: complete inhibition

CC(=O)O[C@]1(C(C)=O)CC[C@H]2[C@@H]3C=C(Cl)C4=CC(=O)[C@@H]5C[C@@H]5[C@]4(C)[C@H]3CC[C@@]21C [cyproterone acetate]
viability at 10 µM (in vitro): 75.4%

Cl.Cl.OCCN1CCN(CC/C=C2/c3ccccc3Sc3ccc(Cl)cc32)CC1 [zuclopenthixol hydrochloride]
Vc (%), cell viability rate on HeLa cells (HeLa cells): 92.0% | Ec (%), inhibitory effect on poliovirus replication [4]: 81.8%

CC(=O)N1CCN(c2ccc(OCC3COC(Cn4ccnc4)(c4ccc(Cl)cc4Cl)O3)cc2)CC1 (stereo not drawn) [ketoconazole]
viability at 10 µM (in vitro): 103% | Protection of HeLa cells from WT-PV (plaque assay) [1]: partial protective effect

COc1cc2ncnc(Nc3ccc(F)c(Cl)c3)c2cc1OCCCN1CCOCC1 [gefitinib]
viability at 10 µM (in vitro): 80.1%

meclocycline sulfosalicylate
Vc (%), cell viability rate on HeLa cells (HeLa cells): 81.5% | Ec (%), inhibitory effect on poliovirus replication [4]: 82.1%

C=C(NC(=O)C(=C)NC(=O)c1csc(C2=N[C@@H]3c4csc(n4)[C@H]4NC(=O)c5csc(n5)[C@H]([C@](C)(O)[C@@H](C)O)NC(=O)[C@H]5CSC(=N5)/C(=C/C)NC(=O)[C@H]([C@@H](C)O)NC(=O)c5csc(n5)[C@]3(CC2)NC(=O)[C@H](C)NC(=O)C(=C)NC(=O)[C@H](C)NC(=O)[C@H]([C@@H](C)CC)N[C@@H]2C=Cc3c([C@H](C)O)cc(nc3[C@H]2O)C(=O)O[C@@H]4C)n1)C(N)=O [thiostrepton]
viability at 10 µM (in vitro): 87.9%

CCOc1ccc(Cc2nccc3cc(OCC)c(OCC)cc23)cc1OCC [ethaverine hydrochloride]
viability at 10 µM (in vitro): 88.4%

CCCC1C(=O)N2C(N(C)C)=Nc3ccc(C)cc3N2C1=O (stereo not drawn) [azapropazone]
viability at 10 µM (in vitro): 91.2%

From paper PMC5754216 (ACS infectious diseases, 2016)
